The text below walks through data of US8362000B2, “Azetidinyl diamides as monoacylglycerol lipase inhibitors” (Janssen Pharmaceutica NV, priority 2009, dated 2013).

Substitutions are numbered along the chain they refer to.

By IC50 is commonly meant the concentration that inhibits the measured activity by half. A higher IC50 goes with weaker potency.

One assay deals with T1, mutant MGL (Homo sapiens, UniProt Q99685, L169S/L176S).
T1 sequence (Q99685 1-303 L169S/L176S): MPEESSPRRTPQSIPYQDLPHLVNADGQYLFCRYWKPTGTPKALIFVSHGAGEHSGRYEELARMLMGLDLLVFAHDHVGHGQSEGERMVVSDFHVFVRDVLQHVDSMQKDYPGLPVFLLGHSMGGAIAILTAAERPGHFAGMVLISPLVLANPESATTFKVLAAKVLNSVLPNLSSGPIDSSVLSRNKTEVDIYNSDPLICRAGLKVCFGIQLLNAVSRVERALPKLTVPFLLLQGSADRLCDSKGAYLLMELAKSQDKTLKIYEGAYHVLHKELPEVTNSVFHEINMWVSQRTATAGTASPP
The experiment in a line: MGL ThermoFluor assay - mutant. The conditions noted are these: ThermoFluor concentration-response, read-out: MGL mutant ThermoFluor Kd. The class given is binding. On the technique in general: DSF heats the sample and reads unfolding from a dye or from intrinsic fluorescence.
Regarding `O=C(c1ccccc1)N1CCN(C2CN(C(=O)c3ccc(-c4ccc(F)cc4)cc3)C2)CC1` [Cpd 33, 1-{1-[(4′-Fluorobiphenyl-4-yl)carbonyl]azetidin-3-yl}-4-(phenylcarbonyl)piperazine], the Kd was 0.0091 µM.
Still for that read-out and setting: for `O=C(c1ccc(-c2ccccc2)cc1)N1CC(N2CCN(C(=O)c3ccc(Br)s3)CC2)C1` [Cpd 15, 1-[1-(Biphenyl-4-ylcarbonyl)azetidin-3-yl]-4-[(5-bromothiophen-2-yl)carbonyl]piperazine] the value was 0.286 µM; for `O=C(c1ccccc1)N1CCN(C2CN(C(=O)c3ccc(N4CCOCC4)cc3)C2)CC1` [Cpd 541, 4-[4-({3-[4-(Phenylcarbonyl)piperazin-1-yl]azetidin-1-yl}carbonyl)phenyl]morpholine], 1.66 µM; for `O=C(c1ccccc1)N1CCN(C2CN(C(=O)c3sc4cc(F)ccc4c3C3CC3)C2)CC1` [Cpd 528], 0.049 µM.
Still for that read-out and setting: for `O=C(c1ccc(-c2ccccc2)cc1)N1CCN(C2CN(C(=O)c3ccc[nH]3)C2)CC1` [Cpd 1383, 1-(Biphenyl-4-ylcarbonyl)-4-[1-(1H-pyrrol-2-ylcarbonyl)azetidin-3-yl]piperazine] the value was 0.108 µM; for `O=C(c1ccc(OCc2ccc(Cl)s2)cc1)N1CC(N2CCN(C(=O)C(F)(F)F)CC2)C1` [Cpd 961], 0.576 µM.
In the case of `O=C(c1ccc(-c2ccccc2)cc1)N1CC(N2CCN(C(=O)c3ccccc3)C(CO)C2)C1` (stereo not shown) [Cpd 460, {4-[1-(Biphenyl-4-ylcarbonyl)azetidin-3-yl]-1-(phenylcarbonyl)piperazin-2-yl}methanol], the Kd is 9.1 µM.
On the same count and under the same terms, for `O=C(c1ccccc1)N1CCN(C2CN(C(=O)c3cccc(CNc4ccccc4F)c3)C2)CC1` [Cpd 561] the value was 0.542 µM; for `O=C(c1ccccc1)N1CCN(C2CN(C(=O)c3ccc(-n4ccc(C(F)(F)F)n4)cc3)C2)CC1` [Cpd 622, 1-(Phenylcarbonyl)-4-[1-({4-[3-(trifluoromethyl)-1H-pyrazol-1-yl]phenyl}carbonyl)azetidin-3-yl]piperazine], 3.6 µM.
On to `O=C(c1ccc(SCc2cccc(Cl)c2)cc1)N1CC(N2CCN(C(=O)c3nccs3)CC2)C1` [Cpd 412, 1-[1-({4-[(3-Chlorobenzyl)sulfanyl]phenyl}carbonyl)azetidin-3-yl]-4-(1,3-thiazol-2-ylcarbonyl)piperazine], for which the Kd worked out at 0.01 µM.
In the case of `O=C(c1ccc(CS(=O)(=O)c2cccc(C(F)(F)F)c2)cc1)N1CC(N2CCN(C(=O)c3cscn3)CC2)C1` [Cpd 977], the Kd is 20 µM.

Still in this assay, the particulars now being: ThermoFluor thermal stability binding assay, read-out: MGL mutant ThermoFluor Kd.
Regarding `O=C(c1ccc(OCc2cccc(Cl)c2Cl)c(F)c1)N1CC(N2CCN(C(=O)c3nccs3)CC2)C1` [Cpd 405, 1-[1-({4-[(2,3-Dichlorobenzyl)oxy]-3-fluorophenyl}carbon-yl)azetidin-3-yl]-4-(1,3-thiazol-2-ylcarbonyl)piperazine], the Kd came to 0.002 µM.
Still for that read-out and setting: for `O=C(c1ccc(OCc2ccc(Cl)s2)cc1)N1CC(N2CCN(C(=O)c3cscn3)CC2)C1` [Cpd 963] the value was 0.102 µM.
Turning to `Cc1nc(-c2cccc(C(F)(F)F)c2)sc1C(=O)N1CC(N2CCN(C(=O)c3nccs3)CC2)C1` [Cpd 1407, 1-[1-({4-Methyl-2-[3-(trifluoromethyl)phenyl]-1,3-thiazol-5-yl}carbonyl)azetidin-3-yl]-4-(1,3-thiazol-2-ylcarbonyl)piperazine], the Kd was determined as 0.005 µM.
Take `CC(=O)N1c2ccc(Br)cc2CCC1C(=O)N1CC(N2CCN(C(=O)c3cscn3)CC2)C1` (stereo not shown) [Cpd 377]: the Kd was > 76.7 µM.
Still for that read-out and setting: as for `O=C(c1ccc2c(c1)CCCN2c1cccc(C(F)(F)F)c1)N1CC(N2CCN(C(=O)c3nccs3)CC2)C1` [Cpd 374, 6-({3-[4-(1,3-Thiazol-2-ylcarbonyl)piperazin-1-yl]azetidin-1-yl}carbonyl)-1-[3-(trifluoromethyl)phenyl]-1,2,3,4-tetrahydroquinoline], the figure is 0.0022 µM; as for `N#Cc1csc(C(=O)N2CCN(C3CN(C(=O)c4ccc(-c5ccccc5)cc4)C3)CC2)c1` [Cpd 309], 0.253 µM.

The assay is the same for the next values; noted with them: ThermoFluor, compound concentration measured by qNMR, read-out: MGL mutant ThermoFluor qKd (μM) (using qNMR conc.).
Take `N#Cc1ccccc1-n1ccc2cc(C(=O)N3CC(N4CCN(C(=O)c5ccccc5)CC4)C3)ccc21` [Cpd 588, 2-[5-({3-[4-(Phenylcarbonyl)piperazin-1-yl]azetidin-1-yl}carbonyl)-1H-indol-1-yl]benzonitrile]: the Kd came to 0.512 µM.

The target in another assay is T2, purified wild type MGL (wt-MGLL 6H-11-313) (Homo sapiens, UniProt Q99685).
T2 sequence (Q99685 1-303): T1 sequence (Q99685 1-303 L169S/L176S) with S169L, S176L
Assay: not given
Conditions: not given
For the molecule `O=C(c1nccs1)N1CCN(C2CN(C(=O)c3cnn(-c4ccccc4)c3-c3ccccc3)C2)CC1` [Cpd 1297], the IC50 stood at 3310 nM.
Still for that read-out and setting: for `O=C(c1ccc2[nH]c3c(c2c1)CCCC3)N1CC(N2CCN(C(=O)c3cscn3)CC2)C1` [Cpd 817] the value was 2700 nM; for `O=C(c1nccs1)N1CC(N2CCN(C(=O)c3nc4cc(Cl)ccc4s3)CC2)C1` [Cpd 764], 636 nM.
Still for that read-out and setting: for `O=C(c1cccc(-c2ccc(C(F)(F)F)cc2)c1)N1CC(N2CCN(C(=O)c3nccs3)CC2)C1` [Cpd 149] the value was 76.9 nM.
The molecule `O=C(c1cscn1)N1CC(N2CCN(C(=O)c3nc4cc(Cl)ccc4s3)CC2)C1` [Cpd 821] returned an IC50 of 2850 nM.
On the same count and under the same terms, for `O=C(c1ccccc1)N1CC(N2CCN(C(=O)c3ccc(-c4ccccc4)cc3)CC23CC3)C1` [Cpd 606] the value was 2040 nM; for `CC1CN(C2CN(C(=O)c3ccc(-c4ccccc4)cc3)C2)CCN1C(=O)c1nccs1` (stereo not shown) [Cpd 117], 4230 nM; for `Cn1cc(-c2cccc(C(F)(F)F)c2)c2ccc(C(=O)N3CC(N4CCN(C(=O)c5nccs5)CC4)C3)cc21` [Cpd 1100], 12 nM.
Turning to `O=C(c1ccc(Oc2cc(C(F)(F)F)ccn2)cc1)N1CC(N2CCN(C(=O)c3nccs3)CC2)C1` [Cpd 652], the IC50 amounted to 7 nM.
Molecule `Cc1nn(-c2ccc(F)cc2)c(C)c1C(=O)N1CC(N2CCN(C(=O)c3nccs3)CC2)C1` [Cpd 1301] displayed an IC50 of 4610 nM. Compared with the last molecule, the IC50 is about 660-fold higher.
For the molecule `O=C(c1cscn1)N1CCN(C2CN(C(=O)c3nc4ccc(F)cc4[nH]3)C2)CC1` [Cpd 1442], the IC50 is > 16700 nM.
Still for that read-out and setting: for `O=C(c1nccs1)N1CCN(C2CN(C(=O)c3ccccc3Nc3cccc(F)c3)C2)CC1` [Cpd 754] the value was 447 nM.
Same read-out and setting: as for `Cc1nn(-c2ccc(Cl)cc2)nc1C(=O)N1CC(N2CCN(C(=O)c3nccs3)CC2)C1` [Cpd 1218], the figure is 222 nM.
Still for that read-out and setting: as for `O=C(c1ccc2[nH]c(Cc3ccccc3)nc2c1)N1CC(N2CCN(C(=O)c3cscn3)CC2)C1` [Cpd 1003], the figure is 1610 nM; as for `Cc1cc(-c2cccc(C(F)(F)F)c2)ccc1C(=O)N1CCN(C2CN(C(=O)c3cscn3)C2)CC1` [Cpd 1212], 204 nM; as for `O=C(c1ccc2c(c1)CCN(Cc1cccc(C(F)(F)F)c1)C2)N1CC(N2CCN(C(=O)c3nccs3)CC2)C1` [Cpd 879], < 5 nM.
`Cc1c(C(=O)N2CC(N3CCN(C(=O)c4cscn4)CC3)C2)oc2c(F)cccc12` [Cpd 871] registered an IC50 of 13300 nM.
The same measure, in the same setting: as for `Cn1cc(-c2cccc(C(F)(F)F)c2)c2ccc(C(=O)N3CC(N4CCN(C(=O)c5cscn5)CC4)C3)cc21` [Cpd 1084], the figure is 9 nM.
`Cc1c(-c2ccccc2)oc2c(C(=O)N3CCN(C4CN(C(=O)c5nccs5)C4)CC3c3ccccc3)cccc2c1=O` (stereo not shown) [Cpd 854]: the IC50 came out at 8410 nM.
Molecule `Cc1cn(-c2ccc(F)cc2)c2ccc(C(=O)N3CC(N4CCN(C(=O)c5ccccc5)CC4)C3)cc12` [Cpd 584] registered an IC50 of 105 nM.
Same read-out and setting: as for `O=C(c1ccc(S(=O)(=O)c2cccc(C(F)(F)F)c2)cc1)N1CC(N2CCN(C(=O)C(F)(F)F)CC2)C1` [Cpd 1493], the figure is > 16700 nM; as for `O=C(c1ccccc1)N1CCN(C2CN(C(=O)c3ccc(Oc4ccccc4Cl)nc3)C2)CC1` [Cpd 521], 2190 nM.
The same measure, in the same setting: as for `O=C(c1ccc2nc(CCc3ccccc3)[nH]c2c1)N1CCN(C2CN(C(=O)c3cscn3)C2)CC1` [Cpd 1002], the figure is 5290 nM; as for `Cn1cc(-c2ccc(F)cc2)c2ccc(C(=O)N3CC(N4CCN(C(=O)c5nccs5)CC4)C3)cc21` [Cpd 1318, 3-(4-Fluorophenyl)-1-methyl-6-({3-[4-(1,3-thiazol-2-ylcarbonyl)piperazin-1-yl]azetidin-1-yl}carbonyl)-1H-indole], < 5 nM; as for `O=C(c1ccc(Oc2ccccc2Cl)nc1)N1CC(N2CCN(C(=O)c3nccs3)CC2)C1` [Cpd 708], 106 nM.
Consider `O=C(c1nccs1)N1CCN(C2CN(C(=O)c3ccccc3Nc3cccc(C(F)(F)F)c3)C2)CC1` [Cpd 768], for which the IC50 was 697 nM.
On to `O=C(c1ccc(S(=O)(=O)c2ccccc2)cc1)N1CC(N2CCN(C(=O)c3cscn3)CC2)C1` [Cpd 822], for which the IC50 is 2860 nM. This IC50 is about 4.1-fold higher than that of the molecule before.
The same measure, in the same setting: for `O=C(c1ccc2nc(-c3ccccc3)oc2c1)N1CCN(C2CN(C(=O)c3cscn3)C2)CC1` [Cpd 1275] the value was 1720 nM; for `O=C(c1nccs1)N1CCN(C2CN(C(=O)c3nc4cc(Cl)ccc4s3)C2)CC1` [Cpd 728], 231 nM.
The same measure, in the same setting: for `Cc1c(-c2ccccc2)oc2c(C(=O)N3CCN(C4CN(C(=O)c5ccccc5)C4)CC3c3ccccc3)cccc2c1=O` (stereo not shown) [Cpd 1489] the value was > 16700 nM.
`O=C(c1ccc(-c2ccccc2)cc1)N1CC(N2CCN(C(=O)C3CC3)CC2)C1` [Cpd 303] had an IC50 of 173 nM. This lies in the sub-micromolar range.
